Literature values as cited in US20170112823A1, “COMPOSITIONS AND METHODS TO TREAT […] RELATED CONDITIONS” (priority 2015, published 2017).

Details: frequency of side effect

In the case of CC(C)C[C@H](CN)CC(=O)O [LYRICA, Pregabalin], the “side effects: very commonly, dizziness and drowsiness” value is given as > 10%.
For CNCC[C@H](Oc1cccc2ccccc12)c1cccs1 [Cymbalta, Duloxetine], the “side effect: dizziness” value is given as 19%, the “side effect: dry mouth” value is given as 23% and the “side effect: headache” value is given as 20%. The “side effect: nausea” value was 34%.
